Measurements taken from patent US12180222B2, “Crystal forms of thiophene derivatives” (Tianjin Hemay Pharmaceutical Co., Ltd, priority 2018, dated 2024).

How the values were obtained:
Format in all cases: physicochemical
[1] = Dissolution rate of crystal form in water; conditions: about 25 mg in 900 mL water, 37° C., rotating speed 100/minute
Procedure: The crystal form III of (S)—N-[5-[l-(3-ethoxy-4-methoxyphenyl)-2-(methylsulfonyl)ethyl]-4,6-dioxo-5,6-dihydro-4H-thieno[3,4-c]pyrrole-1-yl]acetamide prepared according to the process in Example 1 was tested.
About 25 mg of crystal form III of (S)—N-[5-[1-(3-ethoxy-4-methoxyphenyl)-2-(methylsulfonyl)ethyl]-4,6-dioxo-5,6-dihydro-4H-thieno[3,4-c]pyrrole-1-yl]acetamide was added to 900 mL of water. The mixture was stirred at a rotating speed of 100/minute at 37° C. for 90 minutes. The supernatant was filtered and diluted. The concentration of the diluted solution (a mg/mL) was determined by ultraviolet spectrophotometer. The dissolution rate was calculated according to the formula 900a/25×100%.

[2] = Accelerated stability (40° C. and Rh=75%, liquid chromatogram and DSC)
Procedure: Crystal form III of (S)—N-[5-[1-(3-ethoxy-4-methoxyphenyl)-2-(methylsulfonyl)ethyl]-4,6-dioxo-5,6-dihydro-4H-thieno[3,4-c]pyrrole-1-yl]acetamide prepared according to the process of Example 1 was placed in a stability text box at 40° C. and Rh=75%. After 1 month, liquid chromatogram and DSC were tested.

[3] = Aqueous solution balance stability (crystal form by XRPD after equilibrium in water); conditions: 37° C., 24 hours
Procedure: About 0.5 g of crystal form III of (S)—N-[5-[1-(3-ethoxy-4-methoxyphenyl)-2-(methylsulfonyl)ethyl]-4,6-dioxo-5,6-dihydro-4H-thieno[3,4-c]pyrrole-1-yl]acetamide was added to 40 mL of water. The mixture was stirred at 37° C. for 24 hours. The suspension was filtered. After wet solid was dried, crystal form of powders was tested with X-ray powder diffraction (XRPD).

[4] = High temperature stability (sealed oven at 40° C., liquid chromatogram and DSC)
Procedure: Crystal form III of (S)—N-[5-[1-(3-ethoxy-4-methoxyphenyl)-2-(methylsulfonyl)ethyl]-4,6-dioxo-5,6-dihydro-4H-thieno[3,4-c]pyrrole-1-yl]acetamide prepared according to the process of Example 1 was placed in a sealed oven at 40° C. After 1 month, liquid chromatogram and DSC were tested.

[5] = Moisture absorption stability / hygroscopicity (RH=80%); conditions: RH=80% (saturated ammonium chloride solution) until weight balanced
Procedure: Moisture absorption of crystal form III of (S)—N-[5-[1-(3-ethoxy-4-methoxyphenyl)-2-(methylsulfonyl)ethyl]-4,6-dioxo-5,6-dihydro-4H-thieno[3,4-c]pyrrole-1-yl]acetamide was studied. Crystal form III of (S)—N-[5-[1-(3-ethoxy-4-methoxyphenyl)-2-(methylsulfonyl)ethyl]-4,6-dioxo-5,6-dihydro-4H-thieno[3,4-c]pyrrole-1-yl]acetamide was placed in a drier containing saturated ammonium chloride solution (RH=80%) until weight was balanced. The crystal form was tested with XRPD.
Crystal form III of (S)—N-[5-[1-(3-ethoxy-4-methoxyphenyl)-2-(methylsulfonyl)ethyl]-4,6-dioxo-5,6-dihydro-4H-thieno[3,4-c]pyrrole-1-yl]acetamide prepared according to the process of Example 1 was tested.

CCOc1cc([C@@H](CS(C)(=O)=O)N2C(=O)c3csc(NC(C)=O)c3C2=O)ccc1OC [Crystal Form III, (S)—N-[5-[1-(3-ethoxy-4-methoxyphenyl)-2-(methylsulfonyl)ethyl]-4,6-dioxo-5,6-dihydro-4H-thieno[3,4-c]pyrrole-1-yl]acetamide]
Dissolution Rate (%) ([1]; time 0 min): 0% | Dissolution Rate (%) ([1]; time 15 min): 32.2% | Dissolution Rate (%) ([1]; time 30 min): 46.3% | Dissolution Rate (%) ([1]; time 45 min): 55.1% | Dissolution Rate (%) ([1]; time 60 min): 61.8% | Dissolution Rate (%) ([1]; time 75 min): 66.5% | Dissolution Rate (%) ([1]; time 90 min): 71.5% | stability under high-temperature and high-humidity conditions ([2]; 40° C. and Rh=75%, 1 month): good stability | Relevant Substance Contents at Day 0 (%) ([2]; Day 0, before storage at 40° C. RH = 75%): 0.07% | Relevant Substance Contents after 1 Month (%) ([2]; storage 40° C. RH = 75%, 1 month): 0.09% | stability in water [3]: good stability | stability under high temperature conditions ([4]; 40° C., 1 month): good stability | Relevant Substance Contents at Day 0 (%) ([4]; Day 0, before storage at 40° C.): 0.07% | Relevant Substance Contents after 1 Month (%) ([4]; storage 40° C., sealed oven, 1 month): 0.09% | Moisture Absorption %) [5]: 1.17% | Weight Increase ([5]; mAPI 0.511 g): 0.006 g
